Laboratory results reported in patent US20170247335A1, “FLUORINATED PYRIDAZIN-3-ONES FOR THE USE THEREOF IN THE TREATMENT OF LUNG DISEASES” (UNIVERSITE DE REIMS CHAMPAGNE-ARDENNE, priority 2014, published 2017).

Legend:
Type in all cases: biochemical
[1] = tested on: PDE4 (recombinant human phosphodiesterases PDE4B2 and PDE4D); assay: PDE4 enzyme inhibition, colorimetric cAMP cleavage test (5'-nucleotidase, Biomol Green); settings: for IC50: average of three independent determinations, non-linear regression, 60 min incubation, 2% DMSO, read-out: CI50 (inhibitory concentration 50)
Description: The activity of the PDE1 and PDE10 enzymes was also monitored.
(§1) The principle of the test is based on the cleavage of AMPc by the enzymes phosphodiesterases. The nucleotide-5′ which is sorted out during the reaction is itself cleaved by an enzyme 5′-nucleotidase into a nucleoside and a phosphate, the latter being quantified by using the reagent Biomol Green™.
(§2) The reaction is stopped by adding an amount of 100 microliters of the reagent Biomol Green™ and the plate is incubated for further 30 mins in order to allow development of the colour before reading the absorbance by means of a micro-plate reader.
The CI50s which were calculated represent the average value of three determinations which were achieved independently of each other.
A non-specific inhibitor of the PDE enzymes, 3-isobutyl-1-methylxanthin (IBMX) corresponds to the control.

[2] = tested on: PDE1; assay: PDE1 enzyme inhibition, same colorimetric test; settings: at a concentration of 50 μM of compound
Description: (§3) In order to evaluate the action of the compounds (Ic), (Ig) and (Ii) according to the invention, the activity of different sub-types of phosphodiesterases, either of type 4 or not, was tested in vitro by using a kit adapted to the recombinant isoforms of human phosphodiesterases PDE4B2 and PDE4D coded by Escherichia coli. The activity of the PDE1 and PDE10 enzymes was also monitored.
as §1
(§4) The PDE enzymes are incubated on microplates in the presence of AMPc, 5′-nucleotidase, in the presence of an inhibitor, more particularly corresponding to the compound (Ic), (Ig) or (Ii) according to the invention, or in the absence of any inhibitor (control), and this for a period of the order of 60 mins.
as §2
The study of the inhibition of the PDE enzymes by the compound (Ic), (Ig) or (Ii) according to the invention was carried out by testing […] different concentrations (500 μM, 50 μM, 5 μM and 0.5 μM) of said compounds (Ic), (Ig) or (Ii).

[3] = biological target: PDE10 (Homo sapiens, UniProt Q9Y233); assay: PDE10 enzyme inhibition, same colorimetric test; settings: read-out: percentage of inhibition towards PDE10
Sequence of PDE10 (Q9Y233 whole entry): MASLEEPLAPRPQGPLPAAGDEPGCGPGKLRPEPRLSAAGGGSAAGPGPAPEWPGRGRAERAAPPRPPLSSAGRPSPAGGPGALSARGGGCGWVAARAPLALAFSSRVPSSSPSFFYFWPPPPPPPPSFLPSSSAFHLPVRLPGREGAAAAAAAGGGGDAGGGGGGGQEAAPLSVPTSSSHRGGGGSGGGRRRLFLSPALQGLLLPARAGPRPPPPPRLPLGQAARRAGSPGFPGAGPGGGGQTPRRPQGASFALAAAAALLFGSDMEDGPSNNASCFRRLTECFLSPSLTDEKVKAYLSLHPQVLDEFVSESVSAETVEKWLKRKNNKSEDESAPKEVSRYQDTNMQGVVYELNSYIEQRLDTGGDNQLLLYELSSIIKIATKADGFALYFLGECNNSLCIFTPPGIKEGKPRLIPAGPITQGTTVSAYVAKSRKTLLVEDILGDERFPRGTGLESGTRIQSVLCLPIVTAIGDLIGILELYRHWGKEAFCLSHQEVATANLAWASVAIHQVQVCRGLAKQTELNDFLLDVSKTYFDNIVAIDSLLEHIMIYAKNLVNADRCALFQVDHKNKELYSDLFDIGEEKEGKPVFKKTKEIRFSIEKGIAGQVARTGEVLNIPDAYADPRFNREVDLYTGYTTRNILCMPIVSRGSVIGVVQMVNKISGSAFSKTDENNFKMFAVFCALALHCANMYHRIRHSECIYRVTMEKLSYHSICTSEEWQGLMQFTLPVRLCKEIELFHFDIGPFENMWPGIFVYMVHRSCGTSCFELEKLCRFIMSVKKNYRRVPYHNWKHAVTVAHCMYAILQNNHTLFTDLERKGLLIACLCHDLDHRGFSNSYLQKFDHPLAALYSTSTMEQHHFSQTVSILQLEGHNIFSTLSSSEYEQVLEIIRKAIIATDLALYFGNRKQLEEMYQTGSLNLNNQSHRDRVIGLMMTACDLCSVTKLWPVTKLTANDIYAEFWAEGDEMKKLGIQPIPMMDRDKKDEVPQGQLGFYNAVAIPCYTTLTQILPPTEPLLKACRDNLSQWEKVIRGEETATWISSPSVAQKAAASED
Description: as §3, §1, §4
The reaction is stopped by adding an amount of 100 microliters of the reagent Biomol Green™ and the plate is incubated for further 30 mins in order to allow development of the colour before reading the absorbance by means of a micro-plate reader. […]

[4] = at a concentration of 50 μM of compound

Row | SMILES | inhibition percentage of PDE4 [1, 4] [%] | IC50 [1] [µM] | inhibition of PDE1 [2] [%] | inhibition percentage of PDE4 ([1]; at a 5 μM concentration of compound) [%] | inhibition at 50 µM [3] [%]
1 | COc1ccc(-c2cc(C(F)(F)F)c(=O)[nH]n2)cc1OC [compound (Ic), 4-(trifluoromethyl)-6-(3′,4′-dimethoxyphenyl)pyridazin-3(2H)-one] | 74 | 8.1 | 0 |  | 
2 | Cc1ccc(-c2cc(C(F)(F)F)c(=O)n(-c3ccccc3)n2)cc1 [compound (Ig), 4-(trifluoromethyl)-2-phenyl-6-(p-tolyl)pyridazin-3(2H)-one] | 45 | 15 | 0 |  | 
3 | COc1cc(-c2cc(C(F)(F)F)c(=O)[nH]n2)ccc1OC(F)F [compound (Ii), 6-(4′-(difluoromethoxy)-3′-methoxy-phenyl)-4-(trifluoromethyl)pyridazin-3(2H)-one] |  | 0.25 | 0 | 56 | 9
